Laboratory results as given in patent US20240109917A1 (ACTELION PHARMACEUTICALS LTD, priority 2020, published 2024).

What was measured:
[1] = target: Tb-labeled inactive PDGFRβ (Homo sapiens (Human), UniProt P09619); assay: PDGFRβ LanthaScreen Assay; format: binding; details: read-out: PDGFR Lantha IC50
PDGFRβ = PDGFRβ (Rattus norvegicus (Rat), UniProt Q05030); assay: PDGFRβ Cellular Assay (PDGFRb P-Y751 HTRF in A10 cells stimulated with PDGF-BB); format: cell-based; details: read-out: PDGFR Cellular IC50
Chain of PDGFRβ (Q05030 32-1097): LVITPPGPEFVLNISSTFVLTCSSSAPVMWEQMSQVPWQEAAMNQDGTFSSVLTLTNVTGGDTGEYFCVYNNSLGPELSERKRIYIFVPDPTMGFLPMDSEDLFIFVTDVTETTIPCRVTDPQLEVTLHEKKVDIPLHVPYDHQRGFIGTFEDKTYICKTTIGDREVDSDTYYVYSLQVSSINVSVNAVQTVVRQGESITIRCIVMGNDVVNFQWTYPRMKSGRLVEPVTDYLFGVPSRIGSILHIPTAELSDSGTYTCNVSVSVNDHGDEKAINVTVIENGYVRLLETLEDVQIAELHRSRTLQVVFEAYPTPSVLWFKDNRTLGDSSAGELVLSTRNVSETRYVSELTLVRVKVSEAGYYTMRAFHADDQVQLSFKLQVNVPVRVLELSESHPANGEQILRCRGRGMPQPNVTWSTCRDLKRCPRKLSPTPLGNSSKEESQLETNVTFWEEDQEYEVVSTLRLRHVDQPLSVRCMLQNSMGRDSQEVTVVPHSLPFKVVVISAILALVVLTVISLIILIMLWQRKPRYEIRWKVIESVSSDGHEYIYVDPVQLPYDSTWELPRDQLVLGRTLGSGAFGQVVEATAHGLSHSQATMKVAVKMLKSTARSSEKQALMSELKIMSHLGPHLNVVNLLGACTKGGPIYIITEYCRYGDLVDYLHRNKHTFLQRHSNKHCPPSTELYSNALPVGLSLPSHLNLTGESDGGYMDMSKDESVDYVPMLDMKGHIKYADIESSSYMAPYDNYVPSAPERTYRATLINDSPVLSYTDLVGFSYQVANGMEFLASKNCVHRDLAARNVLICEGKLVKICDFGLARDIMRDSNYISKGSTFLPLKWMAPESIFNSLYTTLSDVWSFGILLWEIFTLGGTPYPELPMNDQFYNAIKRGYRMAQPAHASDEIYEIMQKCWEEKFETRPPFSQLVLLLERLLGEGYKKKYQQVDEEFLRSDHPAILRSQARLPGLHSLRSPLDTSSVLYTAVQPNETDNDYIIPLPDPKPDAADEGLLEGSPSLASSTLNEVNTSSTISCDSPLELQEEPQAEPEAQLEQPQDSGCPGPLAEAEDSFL
How it was run: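 Rat A10 cells, plated overnight, were treated with compound for 3 hours, then stimulated with PDGF-BB (working stock 100 ng/mL in 10% FBS medium). After lysis, PDGFRβ P-Y751 was detected by HTRF.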

[2] = target: His6-TEV-PDGFRβ (557-1016) (Homo sapiens (Human), UniProt P09619); assay: PDGFRβ HTRF Assay; format: biochemical; details: read-out: PDGFR HTRF IC50
Chain of His6-TEV-PDGFRβ (557-1016) (P09619 557-1016): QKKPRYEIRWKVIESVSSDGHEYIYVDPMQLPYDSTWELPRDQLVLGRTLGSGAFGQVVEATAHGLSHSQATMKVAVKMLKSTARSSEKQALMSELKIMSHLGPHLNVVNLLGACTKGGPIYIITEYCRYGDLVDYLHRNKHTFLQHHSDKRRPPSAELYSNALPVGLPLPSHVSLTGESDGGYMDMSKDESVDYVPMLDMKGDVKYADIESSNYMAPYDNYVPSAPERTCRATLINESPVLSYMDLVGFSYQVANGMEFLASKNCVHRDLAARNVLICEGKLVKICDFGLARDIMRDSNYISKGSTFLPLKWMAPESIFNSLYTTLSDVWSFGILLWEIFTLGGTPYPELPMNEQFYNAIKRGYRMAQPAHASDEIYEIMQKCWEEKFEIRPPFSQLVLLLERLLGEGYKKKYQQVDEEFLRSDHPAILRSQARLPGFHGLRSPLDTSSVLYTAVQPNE
How it was run: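 Human PDGFRβ (557-1016) pre-incubated with compound for 30 min at RT in pH 7.5 HEPES/MgCl2/EGTA/Brij-35/DTT buffer. Reaction started with ATP and TK-biotin peptide, run 3 h at RT, then quenched with EDTA-containing Eu-cryptate antibody/streptavidin-XL665. HTRF 665/620 nm ratio read after 60 min; percent inhibition relative to DMSO and 10 μM imatinib controls.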

Chain of Tb-labeled inactive PDGFRβ (P09619 33-1106): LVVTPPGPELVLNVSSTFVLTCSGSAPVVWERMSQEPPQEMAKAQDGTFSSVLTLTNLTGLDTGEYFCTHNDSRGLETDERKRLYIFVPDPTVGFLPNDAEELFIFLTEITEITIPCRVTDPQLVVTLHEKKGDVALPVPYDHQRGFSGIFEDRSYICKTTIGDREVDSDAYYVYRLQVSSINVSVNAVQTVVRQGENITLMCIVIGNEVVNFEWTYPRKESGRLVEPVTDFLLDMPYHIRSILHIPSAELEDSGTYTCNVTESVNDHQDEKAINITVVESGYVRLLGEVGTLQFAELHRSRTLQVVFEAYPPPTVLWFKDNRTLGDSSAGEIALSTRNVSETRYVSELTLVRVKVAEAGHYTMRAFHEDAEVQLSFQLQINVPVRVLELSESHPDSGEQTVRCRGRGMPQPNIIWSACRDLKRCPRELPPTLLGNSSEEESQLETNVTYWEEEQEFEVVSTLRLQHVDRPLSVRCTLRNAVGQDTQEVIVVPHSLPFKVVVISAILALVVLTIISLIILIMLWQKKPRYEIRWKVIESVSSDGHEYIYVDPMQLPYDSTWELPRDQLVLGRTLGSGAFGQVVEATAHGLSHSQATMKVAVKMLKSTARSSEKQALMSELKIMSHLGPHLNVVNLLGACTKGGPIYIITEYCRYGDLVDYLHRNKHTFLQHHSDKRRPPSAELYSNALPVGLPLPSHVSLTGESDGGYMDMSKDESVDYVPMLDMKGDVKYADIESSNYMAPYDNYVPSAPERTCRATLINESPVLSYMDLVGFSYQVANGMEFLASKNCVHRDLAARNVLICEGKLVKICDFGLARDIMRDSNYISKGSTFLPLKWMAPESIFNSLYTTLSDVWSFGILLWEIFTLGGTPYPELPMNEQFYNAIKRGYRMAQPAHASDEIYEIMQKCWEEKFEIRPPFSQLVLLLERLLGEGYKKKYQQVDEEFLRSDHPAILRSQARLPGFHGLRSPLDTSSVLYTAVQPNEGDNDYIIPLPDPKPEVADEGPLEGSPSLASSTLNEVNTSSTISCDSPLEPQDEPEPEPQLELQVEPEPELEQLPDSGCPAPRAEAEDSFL

With `Cc1ncc(C(=O)NCCN2CC3CCC2CC3)cc1NC(=O)c1cnn2cc(-c3cnn(CC#N)c3)sc12` [Example 151, N-(5-((2-(2-azabicyclo[2.2.2]octan-2-yl)ethyl)carbamoyl)-2-methylpyridin-3-yl)-2-(1-(cyanomethyl)-1H-pyrazol-4-yl)pyrazolo[5,1-b]thiazole-7-carboxamide] the IC50 [1] was 2.8 nM, the IC50 (PDGFRβ) was 240 nM and the IC50 [2] was 0.3 nM.
In the case of `Cc1ncc(NC(=O)CCN2CCC3(CC2)CC3)cc1NC(=O)c1cnn2cc(-c3cnn(C)c3)sc12` [Example 97, N-(5-(3-(6-azaspiro[2.5]octan-6-yl)propanamido)-2-methylpyridin-3-yl)-2-(1-methyl-1H-pyrazol-4-yl)pyrazolo[5,1-b]thiazole-7-carboxamide], the IC50 [1] is reported as 6.4 nM, the IC50 (PDGFRβ) is reported as 8.4 nM and the IC50 [2] is reported as 0.4 nM.
Compound `CC(=O)Nc1cncc(-c2cn3ncc(C(=O)Nc4cc(C(=O)NCCN5CC6CCC5CC6)cnc4C)c3s2)c1` [Example 147, N-(5-((2-(2-azabicyclo[2.2.2]octan-2-yl)ethyl)carbamoyl)-2-methylpyridin-3-yl)-2-(5-acetamidopyridin-3-yl)pyrazolo[5,1-b]thiazole-7-carboxamide] has an IC50 [1] of 6.9 nM, an IC50 (PDGFRβ) greater than 2000 nM and an IC50 [2] of 0.8 nM.
Compound `CC(=O)N1CCN(CCNC(=O)c2cnc(C)c(NC(=O)c3cnn4cc(-c5cnn(C)c5)sc34)c2)CC1` [Example 129, N-(5-((2-(4-acetylpiperazin-1-yl)ethyl)carbamoyl)-2-methylpyridin-3-yl)-2-(1-methyl-1H-pyrazol-4-yl)pyrazolo[5,1-b]thiazole-7-carboxamide] has an IC50 [1] of 87.1 nM, an IC50 (PDGFRβ) greater than 3000 nM and an IC50 [2] of 2.9 nM.
With `Cc1ncc(C(=O)NCCN2CC3CCC2CC3)cc1NC(=O)c1cnn2cc(-c3ccncc3)sc12` [Example 148, N-(5-((2-(2-azabicyclo[2.2.2]octan-2-yl)ethyl)carbamoyl)-2-methylpyridin-3-yl)-2-(pyridin-4-yl)pyrazolo[5,1-b]thiazole-7-carboxamide] the IC50 [1] was 4.2 nM, the IC50 (PDGFRβ) was 28.9 nM and the IC50 [2] was 0.3 nM.
`Cc1ncc(C(=O)NCCN2CC3CCC2CC3)cc1NC(=O)c1cnn2cc(-c3cn(C)nc3C)sc12` [Example 178, N-(5-((2-(2-azabicyclo[2.2.2]octan-2-yl)ethyl)carbamoyl)-2-methylpyridin-3-yl)-2-(1,3-dimethyl-1H-pyrazol-4-yl)pyrazolo[5,1-b]thiazole-7-carboxamide] was tested, and the IC50 [1] was 1.8 nM, the IC50 (PDGFRβ) was 18.7 nM and the IC50 [2] was 0.2 nM.
Compound `Cc1ncc(NC(=O)CCN2CCCC2(C)C)cc1NC(=O)c1cnn2cc(-c3ccnn3C)sc12` [Example 11, N-(5-(3-(2,2-dimethylpyrrolidin-1-yl)propanamido)-2-methyl-pyridin-3-yl)-2-(1-methyl-1H-pyrazol-5-yl)pyrazolo[5,1-b]thiazole-7-carboxamide] has an IC50 [1] of 5 nM, an IC50 (PDGFRβ) of 10.6 nM and an IC50 [2] of 0.5 nM.
Work on `Cc1ncc(C(=O)NCCN2CCCC2(C)C)cc1NC(=O)c1cnn2cc(-c3cn(C)cn3)sc12` [Example 163, N-(5-((2-(2,2-dimethylpyrrolidin-1-yl)ethyl)carbamoyl)-2-methylpyridin-3-yl)-2-(1-methyl-1H-imidazol-4-yl)pyrazolo[5,1-b]thiazole-7-carboxamide] yielded an IC50 [1] of 3.9 nM, an IC50 (PDGFRβ) of 160 nM and an IC50 [2] of 0.3 nM.
Work on `Cc1ncc(C(=O)NCCN2CCCC2(C)C)cc1NC(=O)c1cnn2cc(-c3cnn(CCO)c3)sc12` [Example 140, N-(5-((2-(2,2-dimethylpyrrolidin-1-yl)ethyl)carbamoyl)-2-methylpyridin-3-yl)-2-(1-(2-hydroxyethyl)-1H-pyrazol-4-yl)pyrazolo[5,1-b]thiazole-7-carboxamide] yielded an IC50 [1] of 4.9 nM, an IC50 (PDGFRβ) of 309 nM and an IC50 [2] of 0.5 nM.
Compound `Cc1ncc(C(=O)NCCN2CCC(F)(F)CC2)cc1NC(=O)c1cnn2cc(-c3ccncc3)sc12` [Example 154, N-(5-((2-(4,4-difluoropiperidin-1-yl)ethyl)carbamoyl)-2-methylpyridin-3-yl)-2-(pyridin-4-yl)pyrazolo[5,1-b]thiazole-7-carboxamide] has an IC50 [1] of 2.4 nM, an IC50 (PDGFRβ) of 8.7 nM and an IC50 [2] of 0.3 nM.
`Cc1ncc(NC(=O)NCC2CCN(C(C)C)CC2)cc1NC(=O)c1cnn2cc(-c3cnn(C)c3)sc12` [Example 109, N-(5-(3-((1-isopropylpiperidin-4-yl)methyl)ureido)-2-methylpyridin-3-yl)-2-(1-methyl-1H-pyrazol-4-yl)pyrazolo[5,1-b]thiazole-7-carboxamide] gave an IC50 [1] of 1900 nM, an IC50 (PDGFRβ) greater than 3000 nM and an IC50 [2] of 38.9 nM.
Work on `Cc1ncc(C(=O)NCCN2CCOCC23CCC3)cc1NC(=O)c1cnn2cc(-c3cnn(C)c3)sc12` [Example 117, N-(5-((2-(8-oxa-5-azaspiro[3.5]nonan-5-yl)ethyl)carbamoyl)-2-methylpyridin-3-yl)-2-(1-methyl-1H-pyrazol-4-yl)pyrazolo[5,1-b]thiazole-7-carboxamide] yielded an IC50 [1] of 2.3 nM, an IC50 (PDGFRβ) of 5.6 nM and an IC50 [2] of 0.4 nM.
`Cc1ncc(C(=O)NCCN2CCC(C)(C)C2)cc1NC(=O)c1cnn2cc(-c3ccncc3)sc12` [Example 156, N-(5-((2-(3,3-dimethylpyrrolidin-1-yl)ethyl)carbamoyl)-2-methylpyridin-3-yl)-2-(pyridin-4-yl)pyrazolo[5,1-b]thiazole-7-carboxamide] gave an IC50 [1] of 9.8 nM, an IC50 (PDGFRβ) of 26.2 nM and an IC50 [2] of 0.4 nM.
Compound `COCCn1cc(-c2cn3ncc(C(=O)Nc4cc(C(=O)NCCN5CCC(F)(F)CC5)cnc4C)c3s2)cn1` [Example 165, N-(5-((2-(4,4-difluoropiperidin-1-yl)ethyl)carbamoyl)-2-methylpyridin-3-yl)-2-(1-(2-methoxyethyl)-1H-pyrazol-4-yl)pyrazolo[5,1-b]thiazole-7-carboxamide] has an IC50 [1] of 3.4 nM, an IC50 (PDGFRβ) of 11.4 nM and an IC50 [2] of 0.6 nM.
